Assay results as given in patent publication US10568890B2 (Xi'An Libang Pharmaceutical Co., Ltd, priority 2012, dated 2020).
Values after ≈ are worked out from the molar mass of the structure shown.

Tests used:
[1] = Test of miscibility of formulae in vitro; format: physicochemical
Protocol: Ethyl lactate was mixed with ethyl oleate, glycerol triacetate, benzyl benzoate, castor oil, sesame oil, soybean oil, corn oil and olive oil respectively for miscibility, and then the conditions of miscibility were observed. Specifically, 1) adding 0.50 ml of ethyl lactate for each one into eight vials of 7 ml each, and then adding 0.50 ml of ethyl oleate, glycerol triacetate, benzyl benzoate, castor oil, sesame oil, soybean oil, corn oil and olive oil thereto respectively; swirl them for 5 min to be mixed uniformly, followed by standing for 10 min, and then observing and recording the conditions of miscibility of various solvents; 2) adding 0.30 ml of sesame oil, soybean oil, corn oil, olive oil, ethyl oleate, glycerol triacetate and benzyl benzoate respectively into seven vials of 7 ml each; and then adding 0.30 ml of castor oil and 0.30 ml of ethyl lactate thereto; swirl them for 5 min to be mixed uniformly, followed by standing for 10 min; and then observing and recording the conditions of miscibility of various solvents.

[2] = system: advanced breast cancer patients (postmenopausal); settings: after treatment failure of first-line non-steroid drugs; cited from earlier work
[3] = Solubility test of fulvestrant in some solvents; format: physicochemical; settings: 25° C.
Protocol: If it was dissolved completely, the addition of the drug was resumed to reach a saturated state. Nitrogen was introduced, and the vials were kept airtight and free of light for 1-2 days to reach a dissolution-precipitation balance.

SMILES | miscibility of ethyl lactate ([1]; with benzyl benzoate, 0.50 ml each) | miscibility of ethyl lactate ([1]; with castor oil, 0.50 ml each) | miscibility of ethyl lactate ([1]; with corn oil, 0.50 ml each) | miscibility of ethyl lactate ([1]; with ethyl oleate, 0.50 ml each) | miscibility of ethyl lactate ([1]; with glycerol triacetate, 0.50 ml each) | miscibility of ethyl lactate ([1]; with mixed oil 1 (1:1 ethyl oleate and castor oil)) | miscibility of ethyl lactate ([1]; with mixed oil 2 (1:1 benzyl benzoate and castor oil)) | miscibility of ethyl lactate ([1]; with mixed oil 3 (1:1 glycerol triacetate and castor oil)) | miscibility of ethyl lactate ([1]; with mixed oil 4 (1:1 sesame oil and castor oil)) | miscibility of ethyl lactate ([1]; with mixed oil 5 (1:1 corn oil and castor oil)) | miscibility of ethyl lactate ([1]; with mixed oil 6 (1:1 olive oil and castor oil)) | miscibility of ethyl lactate ([1]; with mixed oil 7 (1:1 soybean oil and castor oil)) | miscibility of ethyl lactate ([1]; with olive oil, 0.50 ml each) | miscibility of ethyl lactate ([1]; with sesame oil, 0.50 ml each) | miscibility of ethyl lactate ([1]; with soybean oil, 0.50 ml each) | overall response rate [2] | Solubility ([3]; in benzyl propionate) | Solubility ([3]; in isopentyl acetate)
CCOC(=O)C(C)O (stereo not drawn) [ethyl lactate, ethyl α-hydroxylpropionate] | miscible | miscible | immiscible | miscible | miscible | miscible | miscible | miscible | miscible | miscible | miscible | miscible | immiscible | immiscible | immiscible |  |  | 
C=C1C[C@@H]2[C@H](CC[C@]3(C)C(=O)CC[C@@H]23)[C@@]2(C)C=CC(=O)C=C12 [exemestane] |  |  |  |  |  |  |  |  |  |  |  |  |  |  |  | 28% |  | 
C[C@]12CC[C@@H]3c4ccc(O)cc4C[C@@H](CCCCCCCCC[S+]([O-])CCCC(F)(F)C(F)(F)F)[C@H]3[C@@H]1CC[C@@H]2O (stereo partly shown) [fulvestrant] |  |  |  |  |  |  |  |  |  |  |  |  |  |  |  | 37% | 4.34 mg/mL (≈ 7.15 mM) | 50.98 mg/mL (≈ 84 mM)
